According to patent publication US20240050413A1, “COMPOSITIONS AND METHODS FOR TREATING MULTIPLE SCLEROSIS AND ALLEVIATING FATIGUE” (University of Miami, priority 2020, published 2024):
“And” between values parts separate entries of the source, which are not always exact repeats. Equal entries are not always repeated.

Key:
Type in all cases: in vivo, human
[1] = tested on: MS subjects with severe fatigue; experiment: Sequential dose escalation study of fatigue in multiple sclerosis (VAFS, FSS, MFIS, Epworth sleep scale, satiety scale, adverse events); settings: for improvement in the MFIS: on-drug vs off-drug
Protocol: Three groups of subjects participated in a sequential dose escalation protocol. All subjects received a fixed dose of carbidopa, 50 mg po bid. […] Tablets of the study drugs were produced by the research pharmacy at the University of Miami. Carbidopa was prepared in 50 mg, and 1-histidine at 250 mg strength. Drug dispensation was carried out by the research pharmacist according to the dosage designated for each group.
Benefits and adverse events were documented and reported to the Data Safety Monitoring Body (DSMB). After approval from the DSMB, group 2 was started. Group 2 received 500 mg po bid of L-histidine. Once again after approval from the DSMB, following the successful completion of group 2, escalation to group 3, namely 1 gm po bid of L-histidine was completed. All subjects agreed to participate with 2 lumbar punctures each a week apart, for collection of cerebrospinal fluid (CSF) for the PK/PD part of the study. Each group required the participation of 3 MS subjects and 1 normal individual. For whatever reason if a subject could not complete the study, the design permitted substitution so every group will have three MS subjects and a normal subject that completed the trial.
After informed consent, subjects were screened at the first visit to meet inclusion/exclusion criteria and baseline laboratory studies were obtained including complete blood counts, comprehensive metabolic panel, thyroid panel, and inventory of health measures, including a complete general examination as well as EKG. Subjects completed questionnaires that included the following: Visual Analogue Fatigue Scale (VAFS), fatigue severity scale (FSS), modified fatigue impact scale (MFIS), Epworth sleep scale, Satiety scale, and Center for Epidemiologic Studies Depression Scale. Within 30 days of their screening visit, subjects returned for their baseline visit. The questionnaires were completed again, and subjects underwent the baseline lumbar puncture for collection of baseline cerebrospinal fluid (CSF).
The study medication for the appropriate group was dispensed and all subjects took the first dose of the study drug during this visit.
(§1) Medications were dispensed for 7 days. On day 8, subjects arrived at the center and received the final dose of the study drug and timed from that dosing for the PK/PD studies.
(§2) Blood samples were collected at drug administration, and every 30 minutes for 4 hours. At 90 minutes the second and final lumbar puncture was completed, and CSF obtained for measurement of L-histidine and histamine. All subjects completed the same questions to determine the effects of the treatment on fatigue, wakefulness and satiety.
All subjects were recruited from the MS Center at the University of Miami. Subjects who complained of severe and persistent fatigue of duration longer than 6 months were eligible to be screened for the study. During screening inclusion and exclusion criteria were carefully reviewed. To be eligible, a subject needed to have a definite diagnosis of MS by the McDonald International Criteria and severe fatigue with a mean Fatigue Severity Score (FSS) of 5.0 or greater (maximum mean FSS=7.0). Patients with confounding factors such as anemia, untreated hypothyroidism, depression, concomitant medication that caused fatigue were carefully examined and excluded. Use of stimulants and concomitant use of medications for treatment of fatigue such as modafinil was excluded. Use of caffeine was not restricted, but patients were instructed not to change the usage. Pregnant or lactating females were not included in the study. Patients were cautioned not to use over-the-counter medications without approval of the PI during the study, especially medications for sleep or allergies including but not limited to the use of oral steroids or antihistamines with potential to confound the results of the trial.
They were spouses of patients who participated in this trial. […]

[2] = PK/PD: L-histidine levels in plasma and CSF after final dose
Protocol: as §1, §2
On day 7 from the baseline, the end-of-study visit, subjects arrived at the center without taking the last dose, which was administered under supervision and timed for time-zero. Baseline samples of blood for serum and plasma were collected and blood samples were obtained every half-hour for 6 hours.
At 90 minutes post administration a lumbar puncture was performed, and 0.5 ml aliquots of spinal fluid were collected for a total of 5 minutes. Spinal fluid, serum, and plasma were frozen at -80C until analysis for levels of histidine, histamine and metabolomic studies.
L-Histidine and L-Histidine-^13G6 analytical standards (Sigma Aldrich) were prepared in LC-MS grade water with 0.1% formic acid (FA). 25 μL of sample (CSF or blood) or calibration standard was mixed with 75 μL of LC-MS grade water with 0.1% FA and 200 μL of 2.5 μM L-Histidine-^13G6. […]

CSF biochemicals = experiment: Metabolomics in the cerebrospinal fluid after histidine loading
Source text: Four CSF samples from normal subjects (2 before histidine loading and 2 after) and 12 CSF samples from MS patients (6 before and 6 after histidine loading) were examined in this study. The MS samples were evenly distributed from 3 responders and 3 non-responder MS subjects. The dataset comprised a total of 494 biochemicals, 434 known and 60 unknown entities. […] A summary of the biochemicals that achieved significance (p≤0.05) as also those approaching significance (0.05<p<0.10), were examined. All assays also examined estimates of false discoveries (q-value) inherent in estimates that use multiple comparisons. A low q-value (<0.1) gave confidence in a result with a low p value as a potentially meaningful result.

[3] = Group 1: 150 mg po bid of L-histidine and carbidopa 50 mg po bid, one individual
[4] = Group 2: 500 mg po bid of L-histidine and carbidopa 50 mg po bid, single subject
[5] = Group 2 responder, 500 mg po bid of L-histidine and carbidopa 50 mg po bid
[6] = short exposure to the study drug
[7] = following histidine loading, lower prior to loading
[8] = responder population after histidine loading, FIG. 8

N[C@@H](Cc1c[nH]cn1)C(=O)O [L-histidine]
adverse events ([1]; Group 1: 150 mg po bid of L-histidine and carbidopa 50 mg po bid): No adverse events were reported | response in fatigue scales (VAFS, FSS, MFIS) [1, 3]: improved fatigue scores in all three fatigue scales | improvement in the MFIS [1, 3]: 30% | response in fatigue scales (VAFS, FSS, MFIS) [1, 4]: improvement in all 3 fatigue scales | improvement in the MFIS [1, 4]: 81% | cognition (written narrative) [1, 5]: able to think clearly, have better focus, and improved cognition | libido and sexual activity (written narrative) [1, 5]: Remarkable improvement of libido and sexual activity | overall quality of life (written narrative) [1, 5]: marked improvement in overall quality of life | relief from fatigue (written narratives) ([1]; Group 3: L-histidine 1 gm po bid and carbidopa 50 mg po bid): The relief from fatigue was complete | response in fatigue scales (VAFS, FSS, MFIS) ([1]; Group 3: L-histidine 1 gm po bid and carbidopa 50 mg po bid, MS subjects): three of the three MS subjects noticed remarkable improvement | improvements of MFIS better than off-drug scores ([1]; Group 3: L-histidine 1 gm po bid and carbidopa 50 mg po bid, three MS subjects, one value each): 69% and 74% and 82% | day on which subjects noticed the change ([1]; all subjects who noted improvement, at whatever dose, response sustained until study drug discontinued): ~2 days | adverse events ([1]; normal subjects): Nor did they experience any adverse events | benefit from the study drug ([1]; normal subjects (no MS, no fatigue)): did not notice any benefit | subset scores of MSFC (post-hoc examination) ([1]; responders, physical, cognitive and psychosocial domains): improvement of all three domains, physical, cognitive and psychosocial | change in satiety scale [1, 6]: A change in satiety scale was not recorded | change in weight [1, 6]: A change in weight was also not recorded | Epworth Sleep Scale (ESS) on study drug ([1]; single fatigue responder with ESS over 10, dropped from 13): 6 | reported adverse events ([1]; whole study, all groups): few and related to the lumbar punctures or unrelated intercurrent infections | time after which plasma L-histidine levels became undetectable ([2]; human, in vivo): > 4 h | time of peak levels of L-histidine in the plasma ([2]; plasma, after final dose, FIG. 5A, 500 mg carbidopa arm): 2 h | Histamine levels in the CSF (CSF biochemicals; FIG. 7): below the level of detection sensitivity | Histidine levels in CSF after loading (CSF biochemicals; MS patients and normal subjects, FIG. 7): increased after loading similarly in MS patients and normal subjects | Deoxycarnitine in CSF (CSF biochemicals; after histidine loading): increased | NAA levels in CSF (CSF biochemicals; after histidine loading): increased | Carnosine and homocarnosine levels in CSF (CSF biochemicals; after histidine loading, FIG. 7): did not change significantly | levels of carnosine and homocarnosine (CSF biochemicals; after the intervention (concluding statement)): increases the levels | Acetoacetate in CSF (CSF biochemicals; [7]): increased following histidine loading | beta hydroxybutyrate in CSF (CSF biochemicals; [7]): increased following histidine loading | cis-aconitate in CSF (CSF biochemicals; post dosing, MS subjects): increases were observed | citrate in CSF (CSF biochemicals; post dosing, MS subjects): increases were observed | Creatine phosphate in CSF (CSF biochemicals; [8]): increased | N-acetylaspartate (NAA) in CSF (CSF biochemicals; [8]): increased
